The values below come from PubChem BioAssay (NCI).

By GI50 is commonly meant the concentration giving 50% growth inhibition. As a reminder, the TGI is the concentration giving total growth inhibition.

Test systems include COLO 205 colon; HL-60(TB) leukemia; HS 578T breast; IGROV1 ovarian; K-562 leukemia; NCI-H23 lung; SK-MEL-5 melanoma; EKVX NSCLC.
Common to all, as to experiment: DTP human tumour cell line panel, 48 h

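Cells were grown in 96-well plates and exposed to each compound for 48 hours at five concentrations; endpoints were interpolated linearly between bracketing concentrations, or set to the highest concentration if not reached. GI50: concentration for 50% inhibition of growth. TGI denotes the concentration required for complete inhibition of growth.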 Some results are limits rather than exact numbers.

For the molecule `Cn1cc(C2=C(N3CCOCC3)C(=O)NC2=O)c2ccccc21`, the GI50 with COLO 205 colon, in the test with HL-60(TB) leukemia, in the test on HS 578T breast, in the test on IGROV1 ovarian, in the test with K-562 leukemia and in the test on NCI-H23 lung was above 25 µM each time. Further, in the test with SK-MEL-5 melanoma, the GI50 is above 25 µM. Also, the TGI in the test with COLO 205 colon, with HL-60(TB) leukemia, in the test on HS 578T breast, with IGROV1 ovarian, in the test on K-562 leukemia and in the test with NCI-H23 lung was above 25 µM each time. In the test with SK-MEL-5 melanoma, the TGI is above 25 µM.
For `COc1ccc(Cn2cc3c(c2-c2cc(OC)c(OC)c(OC)c2)CCc2cnoc2-3)cc1`, the GI50 is 0.397 µM with EKVX NSCLC; 0.204 µM in the test with HL-60(TB) leukemia; 0.238 µM in the test with HS 578T breast; 0.394 µM in the test on IGROV1 ovarian; 0.111 µM in the test on K-562 leukemia; 0.388 µM in the test on NCI-H23 lung. Besides, the GI50 with SK-MEL-5 melanoma is 0.276 µM. In addition, the TGI was above 100 µM in the test on EKVX NSCLC; 0.647 µM in the test with HL-60(TB) leukemia; 0.805 µM in the test with HS 578T breast; above 100 µM in the test with IGROV1 ovarian; above 32.3 µM in the test with K-562 leukemia; above 100 µM in the test with NCI-H23 lung. Besides, the TGI in the test on SK-MEL-5 melanoma is 4.99 µM.
Turning to `COC(=O)C(C)NC(=O)c1ccccc1I(OS(=O)(=O)C(F)(F)F)c1ccccc1` (stereo not given), the GI50 in the test with COLO 205 colon is 23.6 µM; in the test on EKVX NSCLC it was 25.6 µM; with HS 578T breast, 19.6 µM; in the test on IGROV1 ovarian it was 36.4 µM; in the test with K-562 leukemia, above 42.4 µM; in the test with NCI-H23 lung it was 18.5 µM. The GI50 with SK-MEL-5 melanoma is 13.2 µM. Besides, the TGI in the test with COLO 205 colon was 45.9 µM; in the test with EKVX NSCLC, 88.9 µM; with HS 578T breast, 47.9 µM; in the test on IGROV1 ovarian, above 100 µM; in the test on K-562 leukemia, above 63.7 µM; with NCI-H23 lung it was above 53.3 µM. Further, the TGI with SK-MEL-5 melanoma came out at 26.5 µM.
As for `CC(=O)[O-].O=C([CH-]C(=O)c1ccccc1)c1ccccc1.O=C([CH-]C(=O)c1ccccc1)c1ccccc1.[Sm+3]`, the GI50 with COLO 205 colon is 7.89 µM; with EKVX NSCLC, 2.11 µM; in the test on HL-60(TB) leukemia, 1.66 µM; in the test on IGROV1 ovarian, 5.92 µM; in the test with K-562 leukemia, 3.68 µM; with NCI-H23 lung it was 3.1 µM. The GI50 in the test with SK-MEL-5 melanoma was 1.66 µM. Besides, the TGI was 22.8 µM in the test with COLO 205 colon; 16.6 µM with EKVX NSCLC; 7.08 µM in the test with HL-60(TB) leukemia; 45.1 µM in the test with IGROV1 ovarian; 27.4 µM in the test with K-562 leukemia; 15.5 µM in the test with NCI-H23 lung. Besides, in the test with SK-MEL-5 melanoma, the TGI was 10.2 µM.
As to `CC#Cc1nc(Nc2cc(C)[nH]n2)c2ccccc2n1`, the GI50 in the test on COLO 205 colon is 3.26 µM; with HS 578T breast it was 2.28 µM; in the test with IGROV1 ovarian, 2.58 µM; in the test on K-562 leukemia, 11.7 µM; with NCI-H23 lung, 5.27 µM; in the test on SK-MEL-5 melanoma it was 1.76 µM. For the same molecule, the TGI with COLO 205 colon is 10.3 µM; in the test on HS 578T breast it was 8.41 µM; with IGROV1 ovarian, 15.4 µM; in the test on K-562 leukemia, above 100 µM; with NCI-H23 lung, 41.6 µM; in the test on SK-MEL-5 melanoma, 3.61 µM.
For the molecule `NC(=S)NN=C1CSSC1`, the GI50 with COLO 205 colon is 2.4 µM; in the test with HL-60(TB) leukemia, 0.516 µM; with HS 578T breast, 3.49 µM; in the test on IGROV1 ovarian, 5 µM; with K-562 leukemia, 27 µM; in the test with NCI-H23 lung it was 3.78 µM. For the same molecule, the GI50 with SK-MEL-5 melanoma was 1.3 µM. For the same molecule, the TGI with COLO 205 colon was 5.67 µM; with HL-60(TB) leukemia it was 6.81 µM; with HS 578T breast, 40 µM; in the test with IGROV1 ovarian, 63.1 µM; with K-562 leukemia it was above 100 µM; in the test with NCI-H23 lung, 35.5 µM. Also, the TGI with SK-MEL-5 melanoma was determined as 2.76 µM.
With `CC1(C)C(=O)/C(=C\c2cccnc2)C[C@]2(C)[C@H]3CC[C@@H]4[C@@H](C(=O)/C=C/c5ccncc5)CC[C@@]4(C)[C@]3(C)CC[C@@H]12`, the GI50 is 1.88 µM in the test on COLO 205 colon; 2.82 µM in the test on EKVX NSCLC; 1.78 µM in the test on HL-60(TB) leukemia; 2.78 µM in the test on HS 578T breast; 2.03 µM in the test with IGROV1 ovarian; 1.2 µM in the test with K-562 leukemia. The GI50 in the test with SK-MEL-5 melanoma is 1.67 µM. Further, the TGI in the test on COLO 205 colon was 3.87 µM; in the test on EKVX NSCLC it was 9.2 µM; with HL-60(TB) leukemia, 6.35 µM; with HS 578T breast, 7.93 µM; in the test with IGROV1 ovarian it was 4.05 µM; with K-562 leukemia it was above 100 µM. Also, the TGI in the test on SK-MEL-5 melanoma stood at 3.05 µM.
As to `O=C(O)c1cc2ccccc2c2c1C(=O)c1ccccc1-2`, the TGI with COLO 205 colon, in the test on HL-60(TB) leukemia, with HS 578T breast, in the test with IGROV1 ovarian, with K-562 leukemia and in the test with NCI-H23 lung was above 100 µM each time. In the test on SK-MEL-5 melanoma, this molecule registered a TGI above 100 µM.
For `COc1ccc2ccc3oc([N+](=O)[O-])cc3c2c1`, the GI50 in the test on COLO 205 colon is 0.157 µM; in the test with HS 578T breast, 0.297 µM; with IGROV1 ovarian, 0.246 µM; in the test on K-562 leukemia, 0.259 µM; in the test with NCI-H23 lung, 0.198 µM; with SK-MEL-5 melanoma, 0.104 µM. The TGI with COLO 205 colon is 0.432 µM; in the test with HS 578T breast it was 1.44 µM; in the test with IGROV1 ovarian, 0.877 µM; in the test with K-562 leukemia, above 100 µM; in the test with NCI-H23 lung, 0.572 µM; with SK-MEL-5 melanoma, 0.228 µM.
For the molecule `COc1ccccc1C(=O)N(C)c1ccc(Cl)c(C(=O)OC(C)C)c1`, the TGI is above 100 µM in the test on COLO 205 colon; above 100 µM in the test with EKVX NSCLC; above 100 µM in the test with HS 578T breast; above 100 µM with IGROV1 ovarian; above 100 µM in the test with NCI-H23 lung; 58.3 µM in the test with SK-MEL-5 melanoma.
Take `C=C1C(=O)O[C@H]2[C@H]1CC/C(COC(=O)NCc1ccc(Cn3c(=O)sn(-c4ccccc4)c3=O)cc1)=C\CC[C@@]1(C)O[C@@H]21`: the GI50 with COLO 205 colon is 1.77 µM; in the test on EKVX NSCLC it was 1.85 µM; in the test on HS 578T breast it was 4.14 µM; with IGROV1 ovarian it was 2.09 µM; in the test on K-562 leukemia, 1.8 µM; with NCI-H23 lung it was 3.55 µM. In addition, the GI50 with SK-MEL-5 melanoma is 3.24 µM. In addition, the TGI was 3.44 µM in the test with COLO 205 colon; 4.38 µM in the test on EKVX NSCLC; 33.1 µM in the test on HS 578T breast; 4.2 µM in the test on IGROV1 ovarian; above 100 µM in the test on K-562 leukemia; 12.6 µM in the test on NCI-H23 lung. The molecule further showed a TGI with SK-MEL-5 melanoma of 11.5 µM.
